Source: PubChem BioAssay (NCI)
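Step 1: Grow cells in 96-well plates. Step 2: Expose to compound for 48 hours at 5 concentrations. Step 3: Interpolate endpoints linearly; if unreached, use highest concentration. TGI marks complete inhibition of growth.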

What was measured:
Assay in all cases: DTP human tumour cell line panel, 48 h
SK-MEL-28 melanoma = system: SK-MEL-28 melanoma
A549 NSCLC = system: A549 NSCLC
BT-549 breast = system: BT-549 breast
RXF 393 renal = system: RXF 393 renal
KM12 colon = system: KM12 colon
SNB-75 CNS = system: SNB-75 CNS
HL-60(TB) leukemia = system: HL-60(TB) leukemia
OVCAR-3 ovarian = system: OVCAR-3 ovarian
MALME-3M melanoma = system: MALME-3M melanoma
SK-MEL-5 melanoma = system: SK-MEL-5 melanoma
DU-145 prostate = system: DU-145 prostate
SW-620 colon = system: SW-620 colon
TK-10 renal = system: TK-10 renal
NCI/ADR-RES ovarian = system: NCI/ADR-RES ovarian
OVCAR-8 ovarian = system: OVCAR-8 ovarian
RPMI-8226 leukemia = system: RPMI-8226 leukemia
OVCAR-4 ovarian = system: OVCAR-4 ovarian
MDA-MB-435 = system: MDA-MB-435
COLO 205 colon = system: COLO 205 colon
NCI-H23 lung = system: NCI-H23 lung
U251 CNS = system: U251 CNS
SF-539 CNS = system: SF-539 CNS
HCT-116 colon = system: HCT-116 colon
EKVX NSCLC = system: EKVX NSCLC
M14 melanoma = system: M14 melanoma
OVCAR-5 ovarian = system: OVCAR-5 ovarian
CAKI-1 renal = system: CAKI-1 renal
SK-OV-3 ovarian = system: SK-OV-3 ovarian
HOP-92 NSCLC = system: HOP-92 NSCLC
MOLT-4 leukemia = system: MOLT-4 leukemia
SF-268 CNS = system: SF-268 CNS
786-0 renal = system: 786-0 renal
A498 renal = system: A498 renal
IGROV1 ovarian = system: IGROV1 ovarian
PC-3 prostate = system: PC-3 prostate
K-562 leukemia = system: K-562 leukemia
NCI-H226 lung = system: NCI-H226 lung
HCT-15 colon = system: HCT-15 colon
MDA-N = system: MDA-N
HT29 colon = system: HT29 colon
HOP-62 NSCLC = system: HOP-62 NSCLC
SF-295 CNS = system: SF-295 CNS
T-47D breast = system: T-47D breast
CCRF-CEM leukemia = system: CCRF-CEM leukemia
UACC-257 melanoma = system: UACC-257 melanoma
MCF7 breast = system: MCF7 breast
SK-MEL-2 melanoma = system: SK-MEL-2 melanoma
UACC-62 melanoma = system: UACC-62 melanoma
LOX IMVI melanoma = system: LOX IMVI melanoma
MDA-MB-231 breast = system: MDA-MB-231 breast
SN12C renal = system: SN12C renal
HCC-2998 colon = system: HCC-2998 colon
SNB-19 CNS = system: SNB-19 CNS
UO-31 renal = system: UO-31 renal
ACHN renal = system: ACHN renal
NCI-H460 lung = system: NCI-H460 lung
NCI-H522 lung = system: NCI-H522 lung
SR leukemia = system: SR leukemia

CO/C(N)=C(\C#N)N=Cc1cccnc1
TGI (SK-MEL-28 melanoma): > 100 µM
TGI (A549 NSCLC): > 100 µM
TGI (BT-549 breast): > 100 µM
TGI (RXF 393 renal): > 100 µM
TGI (KM12 colon): > 100 µM
TGI (SNB-75 CNS): > 100 µM
TGI (HL-60(TB) leukemia): > 100 µM
TGI (OVCAR-3 ovarian): > 100 µM
TGI (MALME-3M melanoma): > 100 µM
TGI (SK-MEL-5 melanoma): > 100 µM
TGI (DU-145 prostate): > 100 µM
TGI (SW-620 colon): > 100 µM
TGI (TK-10 renal): > 100 µM
TGI (NCI/ADR-RES ovarian): > 100 µM
TGI (OVCAR-8 ovarian): > 100 µM
TGI (RPMI-8226 leukemia): > 100 µM
TGI (OVCAR-4 ovarian): > 100 µM
TGI (MDA-MB-435): > 100 µM
TGI (COLO 205 colon): > 100 µM
TGI (NCI-H23 lung): > 100 µM
TGI (U251 CNS): > 100 µM
TGI (SF-539 CNS): > 100 µM
TGI (HCT-116 colon): > 100 µM
TGI (EKVX NSCLC): > 100 µM
TGI (M14 melanoma): > 100 µM
TGI (OVCAR-5 ovarian): > 100 µM
TGI (CAKI-1 renal): > 100 µM
TGI (SK-OV-3 ovarian): > 100 µM
TGI (HOP-92 NSCLC): > 100 µM
TGI (MOLT-4 leukemia): > 100 µM
TGI (SF-268 CNS): > 100 µM
TGI (786-0 renal): > 100 µM
TGI (A498 renal): > 100 µM
TGI (IGROV1 ovarian): > 100 µM
TGI (PC-3 prostate): > 100 µM
TGI (K-562 leukemia): > 100 µM
TGI (NCI-H226 lung): > 100 µM
TGI (HCT-15 colon): > 100 µM
TGI (MDA-N): > 100 µM
TGI (HT29 colon): > 100 µM
TGI (HOP-62 NSCLC): > 100 µM
TGI (SF-295 CNS): > 100 µM
TGI (T-47D breast): > 100 µM
TGI (CCRF-CEM leukemia): > 100 µM
TGI (UACC-257 melanoma): > 100 µM
TGI (MCF7 breast): > 100 µM
TGI (SK-MEL-2 melanoma): > 100 µM
TGI (UACC-62 melanoma): > 100 µM
TGI (LOX IMVI melanoma): > 100 µM
TGI (MDA-MB-231 breast): > 100 µM
TGI (SN12C renal): > 100 µM
TGI (HCC-2998 colon): > 100 µM

COc1ccc(Cc2nc3cc([N+](=O)[O-])ccc3n2C[C@@H]2CCCN3CCCCC23)cc1 (some centres not stated)
TGI (SK-MEL-28 melanoma): 35.1 µM
TGI (A549 NSCLC): 35 µM
TGI (BT-549 breast): 37.5 µM
TGI (RXF 393 renal): 39.8 µM
TGI (KM12 colon): 29.8 µM
TGI (SNB-75 CNS): > 100 µM
TGI (SNB-19 CNS): 84.8 µM
TGI (HL-60(TB) leukemia): 19 µM
TGI (OVCAR-3 ovarian): 41.1 µM
TGI (MALME-3M melanoma): 32.1 µM
TGI (SK-MEL-5 melanoma): 27.9 µM
TGI (DU-145 prostate): > 100 µM
TGI (SW-620 colon): 81.8 µM
TGI (TK-10 renal): 92.8 µM
TGI (NCI/ADR-RES ovarian): 60.6 µM
TGI (OVCAR-8 ovarian): > 100 µM
TGI (UO-31 renal): 21.1 µM
TGI (OVCAR-4 ovarian): 61.3 µM
TGI (MDA-MB-435): 38.1 µM
TGI (COLO 205 colon): 27 µM
TGI (NCI-H23 lung): 87.2 µM
TGI (U251 CNS): 50.6 µM
TGI (HCT-116 colon): 38.2 µM
TGI (EKVX NSCLC): 76.5 µM
TGI (M14 melanoma): 27.2 µM
TGI (OVCAR-5 ovarian): 82 µM
TGI (CAKI-1 renal): 45.3 µM
TGI (ACHN renal): > 100 µM
TGI (SK-OV-3 ovarian): 46.4 µM
TGI (HOP-92 NSCLC): 76.8 µM
TGI (MOLT-4 leukemia): 60.1 µM
TGI (786-0 renal): 40 µM
TGI (A498 renal): 35.2 µM
TGI (IGROV1 ovarian): 48.1 µM
TGI (PC-3 prostate): > 100 µM
TGI (K-562 leukemia): 57.6 µM
TGI (NCI-H460 lung): > 100 µM
TGI (NCI-H226 lung): > 100 µM
TGI (HCT-15 colon): 56.5 µM
TGI (MDA-N): 33.8 µM
TGI (HT29 colon): 38.4 µM
TGI (HOP-62 NSCLC): 43.6 µM
TGI (SF-295 CNS): 35.8 µM
TGI (T-47D breast): > 100 µM
TGI (CCRF-CEM leukemia): 29.2 µM
TGI (UACC-257 melanoma): 31.5 µM
TGI (MCF7 breast): > 100 µM
TGI (SK-MEL-2 melanoma): 33.2 µM
TGI (UACC-62 melanoma): 31.3 µM
TGI (LOX IMVI melanoma): 36.4 µM
TGI (MDA-MB-231 breast): 43 µM
TGI (HCC-2998 colon): 34.1 µM

CN1CCN(CCCCN2c3ccccc3Sc3ccc(C(=O)c4ccccc4)cc32)CC1
TGI (SK-MEL-28 melanoma): 2.85 µM
TGI (A549 NSCLC): 3.55 µM
TGI (BT-549 breast): 3.04 µM
TGI (RXF 393 renal): 2.57 µM
TGI (KM12 colon): 2.49 µM
TGI (SNB-75 CNS): 2.58 µM
TGI (SNB-19 CNS): 3.45 µM
TGI (HL-60(TB) leukemia): 3.66 µM
TGI (OVCAR-3 ovarian): 3.71 µM
TGI (MALME-3M melanoma): 7.3 µM
TGI (SK-MEL-5 melanoma): 3.08 µM
TGI (DU-145 prostate): 6.73 µM
TGI (SW-620 colon): 3.2 µM
TGI (TK-10 renal): 3.11 µM
TGI (OVCAR-8 ovarian): 2.97 µM
TGI (UO-31 renal): 6.27 µM
TGI (OVCAR-4 ovarian): 6.13 µM
TGI (MDA-MB-435): 3.24 µM
TGI (COLO 205 colon): 3.28 µM
TGI (NCI-H23 lung): 3.71 µM
TGI (NCI-H522 lung): 3.44 µM
TGI (U251 CNS): 3.09 µM
TGI (SF-539 CNS): 3.41 µM
TGI (HCT-116 colon): 3.29 µM
TGI (EKVX NSCLC): 15.5 µM
TGI (M14 melanoma): 3.32 µM
TGI (OVCAR-5 ovarian): 7.43 µM
TGI (CAKI-1 renal): 2.75 µM
TGI (ACHN renal): 3.06 µM
TGI (SR leukemia): 4.61 µM
TGI (SK-OV-3 ovarian): 2.94 µM
TGI (HOP-92 NSCLC): 4.68 µM
TGI (MOLT-4 leukemia): 3.43 µM
TGI (SF-268 CNS): 13 µM
TGI (A498 renal): 3.12 µM
TGI (IGROV1 ovarian): 3.19 µM
TGI (PC-3 prostate): 2.83 µM
TGI (K-562 leukemia): 2.79 µM
TGI (NCI-H226 lung): 3.7 µM
TGI (HCT-15 colon): 3.06 µM
TGI (MDA-N): 2.92 µM
TGI (HT29 colon): 2.6 µM
TGI (HOP-62 NSCLC): 3.16 µM
TGI (SF-295 CNS): 3.45 µM
TGI (T-47D breast): 45.4 µM
TGI (UACC-257 melanoma): 3.36 µM
TGI (MCF7 breast): 3.65 µM
TGI (SK-MEL-2 melanoma): 3.41 µM
TGI (UACC-62 melanoma): 2.52 µM
TGI (LOX IMVI melanoma): 3.22 µM
TGI (MDA-MB-231 breast): 3.38 µM
TGI (SN12C renal): 3.19 µM
TGI (HCC-2998 colon): 2.94 µM
